Laboratory results taken from PubChem BioAssay AID192 (DTP/NCI, 2004).
“And” between values parts separate entries of the source, which are not always exact repeats. Equal values may be shown once. Inconclusive results and toxic doses are left out.

Tested on: BDF1 mice, B16 melanoma ip, median survival T/C
Test: NCI In Vivo Anticancer Drug Screen. Data for tumor model B16 Melanoma (intraperitoneal) in B6D2F1 (BDF1) mice
Conditions: endpoint: median survival time, higher = longer survival
Method: The antitumor activity of compounds was measured in mice bearing transplantable tumors. Survival or tumor size were measured and the results are expressed as the measurement made in the treated group (T) divided by the measurement made in the vehicle treated control group (C). The tumor model used in this assay is B16 Melanoma (intraperitoneal) in B6D2F1 (BDF1) mice

Structure (SMILES): COC(=O)[C@H]1[C@H]2C[C@@H]3c4[nH]c5ccccc5c4CCN3C[C@H]2C[C@@H](OC(=O)c2cc(OC)c(OC)c(OC)c2)[C@@H]1OC
- T/C (dose: 3.0 micrograms/kg/injection, schedule: Q01DX009 (ip), vehicle: saline): 90 % of control
- T/C (dose: 6.0 micrograms/kg/injection, schedule: Q01DX009 (ip), vehicle: saline): 98 % of control
- T/C (dose: 13.0 micrograms/kg/injection, schedule: Q01DX009 (ip), vehicle: saline): 95 % of control
- T/C (dose: 27.0 micrograms/kg/injection, schedule: Q01DX009 (ip), vehicle: saline): 95 % of control
- T/C (dose: 55.0 micrograms/kg/injection, schedule: Q01DX009 (ip), vehicle: saline): 86 % of control

Structure (SMILES): CC1(C)OC(CI)C(COS(C)(=O)=O)O1 (configuration not stated)
- T/C (dose: 12.5 mg/kg/injection, schedule: Q01DX009 (ip), vehicle: saline with Tween-80): 97 % of control
- T/C (dose: 25.0 mg/kg/injection, schedule: Q01DX009 (ip), vehicle: saline with Tween-80): 97 % of control
- T/C (dose: 50.0 mg/kg/injection, schedule: Q01DX009 (ip), vehicle: saline with Tween-80): 96 % of control and 100 % of control

Structure (SMILES): NC1=NN(c2ccccc2)CC1
- T/C (dose: 0.5 mg/kg/injection, schedule: Q04DX003 (ip), vehicle: saline with Tween-80): 95 % of control
- T/C (dose: 5.0 mg/kg/injection, schedule: Q01DX009 (ip), vehicle: saline with Tween-80): 104 % of control
- T/C (dose: 10.0 mg/kg/injection, schedule: Q01DX009 (ip), vehicle: saline with Tween-80): 100 % of control
- T/C (dose: 10.0 mg/kg/injection, schedule: Q04DX003 (ip), vehicle: saline with Tween-80): 95 % of control
- T/C (dose: 20.0 mg/kg/injection, schedule: Q01DX009 (ip), vehicle: saline with Tween-80): 100 % of control
- T/C (dose: 20.0 mg/kg/injection, schedule: Q04DX003 (ip), vehicle: saline with Tween-80): 95 % of control

Structure (SMILES): Brc1cnc(OCc2ccccc2)nc1OCc1ccccc1
- T/C (dose: 100.0 mg/kg/injection, schedule: Q01DX009 (ip), vehicle: Klucel (hydroxypropylcellulose) (HPC)): 118 % of control
- T/C (dose: 200.0 mg/kg/injection, schedule: Q01DX009 (ip), vehicle: Klucel (hydroxypropylcellulose) (HPC)): 110 % of control
- T/C (dose: 400.0 mg/kg/injection, schedule: Q01DX009 (ip), vehicle: Klucel (hydroxypropylcellulose) (HPC)): 107 % of control

Structure (SMILES): CCNC1=C(N2CC2)C(=O)C(NCC)=C(N2CC2)C1=O
- T/C (dose: 0.37 mg/kg/injection, schedule: Q01DX009 (ip), vehicle: saline): 112 % of control
- T/C (dose: 0.75 mg/kg/injection, schedule: Q01DX009 (ip), vehicle: saline): 104 % of control and 116 % of control

Structure (SMILES): COc1ccc2c(c1OC)C(=O)O[C@@H]2[C@H]1c2cc3c(cc2CCN1C)OCO3
- T/C (dose: 10.0 mg/kg/injection, schedule: Q01DX009 (ip), vehicle: saline): 112 % of control
- T/C (dose: 20.0 mg/kg/injection, schedule: Q01DX009 (ip), vehicle: saline): 108 % of control
- T/C (dose: 40.0 mg/kg/injection, schedule: Q01DX009 (ip), vehicle: saline): 98 % of control
- T/C (dose: 80.0 mg/kg/injection, schedule: Q01DX009 (ip), vehicle: saline): 109 % of control

Structure (SMILES): NC(Cc1cc([N+](=O)[O-])ccc1CN(CCCl)CCCl)C(=O)O (configuration not stated)
- T/C (dose: 1.0 mg/kg/injection, schedule: Q01DX009 (ip), vehicle: Klucel (hydroxypropylcellulose) (HPC)): 178 % of control
- T/C (dose: 1.88 mg/kg/injection, schedule: Q04DX003 (ip), vehicle: Klucel (hydroxypropylcellulose) (HPC)): 158 % of control
- T/C (dose: 2.0 mg/kg/injection, schedule: Q01DX009 (ip), vehicle: Klucel (hydroxypropylcellulose) (HPC)): 193 % of control
- T/C (dose: 3.12 mg/kg/injection, schedule: Q01DX001 (ip), vehicle: Klucel (hydroxypropylcellulose) (HPC)): 164 % of control
- T/C (dose: 3.78 mg/kg/injection, schedule: Q04DX003 (ip), vehicle: Klucel (hydroxypropylcellulose) (HPC)): 173 % of control
- T/C (dose: 4.0 mg/kg/injection, schedule: Q01DX009 (ip), vehicle: Klucel (hydroxypropylcellulose) (HPC)): 240 % of control
- T/C (dose: 6.25 mg/kg/injection, schedule: Q01DX001 (ip), vehicle: Klucel (hydroxypropylcellulose) (HPC)): 170 % of control
- T/C (dose: 7.5 mg/kg/injection, schedule: Q04DX003 (ip), vehicle: Klucel (hydroxypropylcellulose) (HPC)): 185 % of control
- T/C (dose: 8.0 mg/kg/injection, schedule: Q01DX009 (ip), vehicle: Klucel (hydroxypropylcellulose) (HPC)): 261 % of control
- T/C (dose: 12.5 mg/kg/injection, schedule: Q01DX001 (ip), vehicle: Klucel (hydroxypropylcellulose) (HPC)): 186 % of control
- T/C (dose: 15.0 mg/kg/injection, schedule: Q04DX003 (ip), vehicle: Klucel (hydroxypropylcellulose) (HPC)): 164 % of control

Structure (SMILES): CC(C)(C)C(=O)C1C(=O)c2ccccc2C1=O
- T/C (dose: 0.06 mg/kg/injection, schedule: Q01DX009 (ip), vehicle: Klucel (hydroxypropylcellulose) (HPC)): 94 % of control
- T/C (dose: 0.12 mg/kg/injection, schedule: Q01DX009 (ip), vehicle: Klucel (hydroxypropylcellulose) (HPC)): 97 % of control
- T/C (dose: 0.25 mg/kg/injection, schedule: Q01DX009 (ip), vehicle: Klucel (hydroxypropylcellulose) (HPC)): 100 % of control and 108 % of control

Structure (SMILES): CN(C)c1ccc2c(N(C)C)cc(N(C)C)nc2c1
- T/C (dose: 3.12 mg/kg/injection, schedule: Q01DX009 (ip), vehicle: Klucel (hydroxypropylcellulose) (HPC)): 99 % of control
- T/C (dose: 6.25 mg/kg/injection, schedule: Q01DX009 (ip), vehicle: Klucel (hydroxypropylcellulose) (HPC)): 107 % of control
- T/C (dose: 12.5 mg/kg/injection, schedule: Q01DX009 (ip), vehicle: Klucel (hydroxypropylcellulose) (HPC)): 97 % of control
- T/C (dose: 25.0 mg/kg/injection, schedule: Q01DX009 (ip), vehicle: Klucel (hydroxypropylcellulose) (HPC)): 108 % of control
- T/C (dose: 50.0 mg/kg/injection, schedule: Q01DX009 (ip), vehicle: Klucel (hydroxypropylcellulose) (HPC)): 102 % of control
